Results taken from patent US8580268B2, “CpG oligonucleotide analogs containing hydrophobic T analogs with enhanced immunostimulatory activity” (Coley Pharmaceutical GmbH, priority 2006, dated 2013).
Entries after “also recorded” stand apart in the source; their conditions may differ. Strand notation (5' to 3'): a small letter for the sugar, then the base; units joined by * are phosphorothioate-linked, units joined directly phosphodiester-linked; [ ] holds rarer units or linkages, { } end groups; capitals alone tell only the bases. [5IU] = 5-iodo-2'-deoxyuridine; [HEG] = Spacer 18, hexaethylene glycol phosphate; [TEG] = Spacer 9, triethylene glycol phosphate; [2doub] = Doubler2 branching unit (Chemgenes); [6NB] = 6-nitro-benzimidazol nucleoside; [5BrU] = 5-bromo-2'-deoxyuridine (BU); [5mC] = 5-methylcytosine; d = 2'-deoxy (DNA); m = 2'-O-methyl

Target: T1, human TLR9 (Homo sapiens, UniProt Q9NR96)
T1 construct: expressed in transfected cells
T1 sequence (Q9NR96 26-1032): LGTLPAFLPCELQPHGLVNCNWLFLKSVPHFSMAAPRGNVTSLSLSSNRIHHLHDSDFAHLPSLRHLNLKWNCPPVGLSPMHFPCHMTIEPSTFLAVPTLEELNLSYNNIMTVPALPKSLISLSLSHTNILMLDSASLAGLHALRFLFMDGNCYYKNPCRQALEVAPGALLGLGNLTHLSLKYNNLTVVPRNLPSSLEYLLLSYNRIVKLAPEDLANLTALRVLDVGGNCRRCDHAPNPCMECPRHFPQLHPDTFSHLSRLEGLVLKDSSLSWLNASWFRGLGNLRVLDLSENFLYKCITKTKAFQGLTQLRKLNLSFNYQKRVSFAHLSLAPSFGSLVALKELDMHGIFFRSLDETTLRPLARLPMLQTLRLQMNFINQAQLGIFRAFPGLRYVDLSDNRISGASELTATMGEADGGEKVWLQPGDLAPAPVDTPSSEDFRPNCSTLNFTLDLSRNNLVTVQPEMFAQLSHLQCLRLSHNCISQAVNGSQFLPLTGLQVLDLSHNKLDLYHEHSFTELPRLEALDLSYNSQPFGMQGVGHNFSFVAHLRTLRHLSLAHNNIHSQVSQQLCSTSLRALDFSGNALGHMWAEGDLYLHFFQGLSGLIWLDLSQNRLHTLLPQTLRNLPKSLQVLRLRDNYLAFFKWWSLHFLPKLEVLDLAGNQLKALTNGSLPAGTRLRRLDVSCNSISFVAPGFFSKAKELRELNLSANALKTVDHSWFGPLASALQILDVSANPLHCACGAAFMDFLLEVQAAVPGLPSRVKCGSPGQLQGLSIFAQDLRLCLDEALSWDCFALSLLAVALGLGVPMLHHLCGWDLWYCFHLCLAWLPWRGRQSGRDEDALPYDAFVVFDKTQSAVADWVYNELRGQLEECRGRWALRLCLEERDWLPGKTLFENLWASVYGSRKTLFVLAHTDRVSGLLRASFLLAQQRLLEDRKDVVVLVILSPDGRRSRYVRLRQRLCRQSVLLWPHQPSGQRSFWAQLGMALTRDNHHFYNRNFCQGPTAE
Test: TLR9 luciferase assay (NF-κB reporter) in hTLR9-LUC-293 cells
Type: cell-based
Settings: 16 h, stated in words relative to the comparator ODN
Experimental: HEK293 cells were transfected by electroporation with vectors expressing the respective human TLR and a 6xNF-κB-luciferase reporter plasmid. Stable transfectants (3×10^4 cells/well) were incubated indicated amounts of ODN for 16 h at 37° C. in a humidified incubator. Each data point was done in triplicate. Cells were lysed and assayed for luciferase gene activity (using the BriteLite kit from Perkin-Elmer, Zaventem, Belgium). Stimulation indices were calculated in reference to reporter gene activity of medium without addition of ODN.

| Substance | TLR9 stimulation (NF-κB luciferase activity, relative stimulation index) |
| --- | --- |
| JU*C-G*JU*C*G*T*T*T*T*A*C*G*G*C*G*C*C*G*T*G*C*C*G (DNA d[5IU]*dCdG*d[5IU]*dC*dG*dT*dT*dT*dT*dA*dC*dG*dG*dC*dG*dC*dC*dG*dT*dG*dC*dC*dG) [SEQ ID NO:44] | increased stimulation of TLR9 above unmodified A and C class |
| T*G*T*C-G*BVU*T*T*T*T*T*T*T*T*T*T*T*T*T*T (DNA TGTCGNTTTTTTTTTTTTTT; listed as DNA, chemistry not fully specified) [SEQ ID NO:154, B-class with 5-(2-bromo-vinyl)-uridine (BVU)] | more active in the assay than the parent sequence |
| T*G*CU*C-G*T*T*T*T*T*T*T*T*T*T*T*T*T*T*T (DNA TGNCGTTTTTTTTTTTTTTT; CU modification, chemistry not fully specified) [SEQ ID NO:41] | greater stimulation of TLR9 activity over control |
| T*G*JU*C-E*T*T*T*T*T*T*T*T*T*T*T*T*T*T*T (DNA TGNCNTTTTTTTTTTTTTTT; JU, 7-deaza-dG, chemistry not fully specified) [SEQ ID NO:138, B-class with 7-deaza-dG (E)] | more active in the assay than the parent ODN |
| T*C-G-A-C-G-JU-C-G-T-G-G*G*G*G (DNA dT*dCdGdAdCdGd[5IU]dCdGdTdGdG*dG*dG*dG) [SEQ ID NO:35, JU-modified A class] | increased stimulation of TLR9 above unmodified A and C class |
| T*G*JU*C-I*T*T*T*T*T*T*T*T*T*T*T*T*T*T*T (DNA TGUCNTTTTTTTTTTTTTTT; DNA at 3, [5IU] at 3, linkages s3 o1 s15 (s phosphorothioate, o phosphodiester), other sugars and the base at N not given here; position 5 is inosine) [SEQ ID NO:139, B-class with inosine (I)] | more active in the assay than the parent ODN |
| T*G*JU*C-mG*T*T*T*T*T*T*T*T*T*T*T*T*T*T*T (DNA dT*dG*d[5IU]*dCmG*dT*dT*dT*dT*dT*dT*dT*dT*dT*dT*dT*dT*dT*dT*dT) [SEQ ID NO:112, 2′-O-methyl-modified B-class] | slightly more active |
| (T*G*JU*C-G*T*T*L*)2doub-teg (DNA TGNCGTTNNN; JU modification, 3'3'-branched doubler with TEG, chemistry not fully specified) [SEQ ID NO:101] | as active or more active than the unmodified SEQ ID NO:1; also recorded: more active than SEQ ID NO:96 AND 97 |
| G*JU*C-G*JU*T-hex [SEQ ID NO:126] | greatly enhanced the activity |
| (JU*C*G*T*T*C*G*L*)2doub-3mG (DNA NCGTTCGNNN; JU, 3'3'-branched doubler, chemistry not fully specified) [SEQ ID NO:97] | as active or more active than the unmodified SEQ ID NO:1 |
| T*C*T*T*T*T*T*T*G*U*C-G*T*T*T*T*T*T*T*T*T*T (DNA dT*dC*dT*dT*dT*dT*dT*dT*dG*dU*dCdG*dT*dT*dT*dT*dT*dT*dT*dT*dT*dT) [SEQ ID NO:51, U-modified T class] | reduced stimulation of TLR9 |
| T*mG*JU*C-mG*T*T*T*T*T*T*T*T*T*T*T*T*T*T*T (DNA dT*mG*d[5IU]*dCmG*dT*dT*dT*dT*dT*dT*dT*dT*dT*dT*dT*dT*dT*dT*dT) [SEQ ID NO:113, 2′-O-methyl-modified B-class] | slightly more active |
| T*G*T*C-G*PU*T*T*T*T*T*T*T*T*T*T*T*T*T*T (DNA TGTCGNTTTTTTTTTTTTTT; 5-propynyl-dU, chemistry not fully specified) [SEQ ID NO:117, B-class with 5-proynyl-dU (PU)] | activity comparable to that of the parent sequence |
| T*G*BVU*C-G*T*T*T*T*T*T*T*T*T*T*T*T*T*T*T (DNA TGNCGTTTTTTTTTTTTTTT; listed as DNA, chemistry not fully specified) [SEQ ID NO:153, B-class with 5-(2-bromo-vinyl)-uridine (BVU)] | more active in the assay than the parent sequence |
| T*G*JU*Z-G*T*T*T*T*T*T*T*T*T*T*T*T*T*T*T (DNA dT*dG*d[5IU]*d[5mC]dG*dT*dT*dT*dT*dT*dT*dT*dT*dT*dT*dT*dT*dT*dT*dT) [SEQ ID NO:140, B-class with 5-methyl-dC (Z)] | more active in the assay than the parent ODN |
| T*G*PU*C-G*T*T*T*T*T*T*T*T*T*T*T*T*T*T*T (DNA TGNCGTTTTTTTTTTTTTTT; 5-propynyl-dU, chemistry not fully specified) [SEQ ID NO:116, B-class with 5-proynyl-dU (PU)] | activity comparable to that of the parent sequence; also recorded: slightly improved over the parent sequence |
| (JU*C*G*T*T*C*G*L*)2doub-teg (DNA d[5IU]*dC*dG*dT*dT*dC*dG*[HEG]*[2doub][TEG]; some compounds branched: two arms joined via doubler and TEG) [SEQ ID NO:102, 3′3′-branched] | as active or more active than the unmodified SEQ ID NO:1; also recorded: more active than SEQ ID NO:96 AND 97 |
| T*G*EU*C-G*T*T*T*T*T*T*T*T*T*T*T*T*T*T*T (DNA TGNCGTTTTTTTTTTTTTTT; EU modification, chemistry not fully specified) [SEQ ID NO:42] | greater stimulation of TLR9 activity over control; also recorded: significant increase in TLR9 activation |
| T*G*BU*C-G*T*T*T*T*T*T*T*T*T*T*T*T*T*T*T (DNA dT*dG*d[5BrU]*dCdG*dT*dT*dT*dT*dT*dT*dT*dT*dT*dT*dT*dT*dT*dT*dT) [SEQ ID NO:10] | greater stimulation of TLR9 activity over control |
| T*G*6NB*C-G*T*T*T*T*T*T*T*T*T*T*T*T*T*T*T (DNA TGNCGTTTTTTTTTTTTTTT; DNA at 1, 2, 4, 5, 6, 7, 8, 9, 10, 11, 12, 13, 14, 15, 16, 17, 18, 19, 20, [6NB] at 3, linkages s3 o1 s15 (s phosphorothioate, o phosphodiester), other sugars not given here; further chemistry not fully specified) [SEQ ID NO:178, B-class with 6-nitro-benzimidazol (6NB)] | comparable with the unmodified parent sequence |
| T*C-G-A-C-G-JU-C-G-JU-G-G*G*G*G (DNA dT*dCdGdAdCdGd[5IU]dCdGd[5IU]dGdG*dG*dG*dG) [SEQ ID NO:36, JU-modified A class] | increased stimulation of TLR9 above unmodified A and C class |
| T*C*G*JU*C-G*JU*T*T*T*A*C*G*G*C*G*C*C*G*T*G*C*C*G (DNA dT*dC*dG*d[5IU]*dCdG*d[5IU]*dT*dT*dT*dA*dC*dG*dG*dC*dG*dC*dC*dG*dT*dG*dC*dC*dG) [SEQ ID NO:45] | increased stimulation of TLR9 above unmodified A and C class |
| T*G*U*C-G*T*T*T*T*T*T*T*T*T*T*T*T*T*T*T (DNA dT*dG*dU*dCdG*dT*dT*dT*dT*dT*dT*dT*dT*dT*dT*dT*dT*dT*dT*dT) [SEQ ID NO:16] | dramatically decreased activity |
| (T*G*JU*C-G*T*T*L*)2doub-3mG (DNA TGNCGTTNNN; JU, 3'3'-branched doubler, chemistry not fully specified) [SEQ ID NO:96] | as active or more active than the unmodified SEQ ID NO:1 |
